Source: patent publication US12351585B2, “2-phenyl-3,4-dihydropyrrolo[2,1-f] [1,2,4]triazinone derivatives as phosphodiesterase inhibitors and uses thereof” (TOPADUR PHARMA AG, priority 2015, dated 2025)
Where two headings read alike, the source gives them in different places.

How the values were obtained:
[1] = target: human phosphodiesterase-5 (PDE5) (Homo sapiens (Human), UniProt O76074); experiment: PDE5 assay: formation of 5'GMP from cGMP, PDE5 enzyme isolated from human platelets
Protocol: Purpose: Evaluation of the effects of compounds of the present invention on the activity of the human phosphodiesterase-5 quantified by measuring the formation of 5′GMP from cGMP using PDE5 enzyme isolated from human platelets.
Thereafter, the reaction is initiated by addition of the enzyme and the mixture is incubated for 60 min at 22° C.
For basal control measurements, the enzyme is omitted from the reaction mixture. Following incubation SPA beads are added. After 20 min at 22° C. under shaking, the amount of [3H]5′GMP is quantified with a scintillation counter (Topcount, Packard).

[2] = system: phenylephrine-precontracted rat aortic rings; experiment: Isometric tension studies on rat aortic rings (relaxation of phenylephrine-precontracted rings); details: for potency and efficacy compared to intact endothelium, in words: L-NAME (FIG. 2C) or mechanical removal of endothelium (FIG. 2D); for EC50 / Emax: Rattus norvegicus
Protocol: After 1 week of acclimatization, rats were anesthetized. Appropriate depth of anesthesia was determined by the absence of the leg flexor response and the eyelid reflex. Then, the thorax was quickly opened by a midline incision, and the rat was sacrificed by cutting the heart and exsanguination.
Indomethacin (1 μM) was added to the saline solution.
Eligible rings were then washed several times to restore tension to the baseline level.
In some experiments, the entire length of the thoracic aorta was functionally denuded of the endothelial layer by gently scraping the luminal surface with a 1.5 mm glass rod. […] Rings were then washed several times to restore tension to the baseline level.
Indomethacin (1 μM) was added to the saline solution. […] Only vessels with at least 60% relaxation to 1 μM ACh from the tension with 300 nM were eligible.
The preparations were allowed to equilibrate for 60 min in Krebs with high glucose (25 mM) before contraction to a new single concentration of PE (300 nM).
Finally, sodium nitroprusside (0.1 mM) was added, in order to obtain maximum relaxation of arterial rings.
The amount of relaxation (percent values as means±SEM) was quantified as percent relaxation from the tension (plateau) achieved with phenylephrine.
Data are presented as mean±SEM. Statistical analysis of results has been performed by analysis of variance (ANOVA) either parametric or non-parametric (Kruskal-Wallis), followed by Bonferroni test or Dunn tests as appropriate (GraphPad Software Inc, San Diego, CA, USA). Significance was accepted when P<0.05. Non-linear regression was conducted with GraphPad Software).

[3] = system: human pulmonary artery smooth muscle cells (hPASMC); experiment: Measurements of cGMP in human pulmonary artery smooth muscle cells (hPASMC); format: cell-based; details: incubation 15 or 30 min
Protocol: Human Pulmonary Artery Smooth Muscle Cells (hPASMC) were purchased from Clonetics™ Lonza (Lonza, reference number CC-2581) and cultured in Clonetics™ smooth muscle growth medium (Clonetics™ SmGM™-2 with BulletKit™ growth factor supplements (Lonza, reference number CC-3182) at 37° C. in 500 CO2. Culture medium was replaced each 48 hours. Cells were grown in 75 cm^2 culture plates. 48 h before the experiments, cells were trypsinized (Trypsin kit One ReagentPack™ (CC-5034), Lonza) and plated in 96 well plates precoated with collagen I at 10000 cells per well. 24 h before the experiments culture medium was replaced by serum-reduced (0.5% FBS) medium.
Measurements of intracellular cGMP were performed using the Amersham cGMP EIA System (GE Healthcare, RPN226) following the instructions of the manufacturer. The assay has a sensitivity of 2 fmol cGMP per well. Briefly, incubations were terminated by adding Amersham's lysis buffer 1 and cells left for 10 min under agitation to ensure complete lysis. cGMP in samples was then acetylated using triethylamine and acetic anhydride and determined by a competitive ELISA. The ELISA is based on the competition between acetylated cGMP in cell culture lysates and a peroxidase-labelled cGMP conjugate for limited binding sites on a cGMP specific antiserum immobilized on pre-coated 96 well MTP. cGMP was determined based on a standard curve. […]

Question: For “(E)-2-(2-ethoxy-5-(4-(2-hydroxyethyl)piperidin-1-ylsulfonyl)phenyl)-5-methyl-4-oxo-7-propyl-3,4-dihydropyrrolo[1,2-f][1,2,4]triazine-6-carbaldehyde oxime [Compound 1al]”, which “% inhibition at 5.0E−09M” value ([1]; 5.0E−09M, percent inhibition of control enzyme activity) is on record?
Answer: 84.9%

Question: What about the IC50 ([1]; human platelet PDE5) of the same compound?
Answer: 0.48 nM

Question: With `CCCOc1ccc(S(=O)(=O)N2CCN(C)CC2)cc1-c1nn2c(CCC)c(/C=N/OC)c(C)c2c(=O)[nH]1` [Compound 1o, (E)-5-methyl-2-(5-((4-methylpiperazin-1-yl)sulfonyl)-2-propoxyphenyl)-4-oxo-7-propyl-3,4-dihydropyrrolo[2,1-f][1,2,4]triazine-6-carbaldehyde O-methyl oxime] as the compound, how does the IC50 ([1]; human platelet PDE5) read?
Answer: 0.53 nM

Question: `CCCc1c(/C=N/O)c(C)c2c(=O)[nH]c(-c3cc(S(=O)(=O)N4CCN(CCCO)CC4)ccc3OCC)nn12` [Compound 1an, (E)-2-(2-ethoxy-5-(4-(3-hydroxypropyl)piperazin-1-ylsulfonyl)phenyl)-5-methyl-4-oxo-7-propyl-3,4-dihydropyrrolo[1,2-f][1,2,4]triazine-6-carbaldehyde oxime] was tested. Which IC50 ([1]; human platelet PDE5) did it give?
Answer: 0.42 nM

Question: `CCCc1c(/C=N/O)c(C)c2c(=O)[nH]c(-c3cc(S(=O)(=O)N4CCN(C)CC4)ccc3OCC)nn12` [Compound 1a, (E)-2-(2-ethoxy-5-((4-methylpiperazin-1-yl)sulfonyl)phenyl)-5-methyl-4-oxo-7-propyl-3,4-dihydropyrrolo[2,1-f][1,2,4]triazine-6-carbaldehyde oxime] was tested. Which IC50 ([1]; human platelet PDE5) did it give?
Answer: 0.25 nM

Question: With `CCCOc1ccc(S(=O)(=O)N2CCC(CCO[N+](=O)[O-])CC2)cc1-c1nn2c(CCC)c(/C=N/O)c(C)c2c(=O)[nH]1` [Compound 1v, (E)-2-(1-((3-(6-((hydroxyimino)methyl)-5-methyl-4-oxo-7-propyl-3,4-dihydropyrrolo[2,1-f][1,2,4]triazin-2-yl)-4-propoxyphenyl)sulfonyl)piperidin-4-yl)ethyl nitrate] as the compound, how does the “potency and efficacy compared to intact endothelium, in words” value [2] read?
Answer: superior

Question: And the “relaxation of rat aortic rings, comparison in words” value (“relaxation of rat aortic rings” below) ([2]; intact endothelium (FIG. 2A))?
Answer: more potent and effective than Sildenafil

Question: And the “relaxation of rat aortic rings” value ([2]; pre-exposed to high glucose 25 mM (FIG. 2B))?
Answer: clearly more potent and efficacious than 1r

Question: What about the “cGMP in hPASMC, activity compared to sildenafil” value [3] of the same compound?
Answer: significantly higher activity as compared to the reference inhibitor sildenafil

Question: How did the “potency and efficacy compared to intact endothelium, in words” value [2] turn out when `CCCOc1ccc(S(=O)(=O)N2CCC(CCO)CC2)cc1-c1nn2c(CCC)c(/C=N/O)c(C)c2c(=O)[nH]1` [Compound 1r, (E)-2-(5-((4-(2-hydroxyethyl)piperidin-1-yl)sulfonyl)-2-propoxyphenyl)-5-methyl-4-oxo-7-propyl-3,4-dihydropyrrolo[2,1-f][1,2,4]triazine-6-carbaldehyde oxime] was run?
Answer: largely impaired

Question: And the EC50 ([2]; High Glucose (25 mM))?
Answer: 2.79 nM

Question: What about the Emax ([2]; High Glucose (25 mM)) of the same compound?
Answer: 51%

Question: And the EC50 ([2]; Intact Endothelium (E+))?
Answer: 0.0074 nM

Question: And the Emax ([2]; Intact Endothelium (E+))?
Answer: 91.9%

Question: And the EC50 ([2]; L-NAME (100 μM))?
Answer: 0.935 nM

Question: What about the Emax ([2]; L-NAME (100 μM)) of the same compound?
Answer: 60.4%

Question: What about the EC50 ([2]; Without Endothelium) of the same compound?
Answer: 5.94 nM

Question: What about the Emax ([2]; Without Endothelium) of the same compound?
Answer: 39.8%

Question: What about the “relaxation of rat aortic rings” value ([2]; intact endothelium (FIG. 2A)) of the same compound?
Answer: more potent and effective than Sildenafil

Question: And the “cGMP in hPASMC, activity compared to sildenafil” value [3]?
Answer: significantly higher activity as compared to the reference inhibitor sildenafil

Question: And the IC50 [1]?
Answer: 0.16 nM

Question: Which “% inhibition at 5.0E−09M” value [1] does the source give for “(E)-2-(4-(4-ethoxy-3-(6-((methoxyimino)methyl)-5-methyl-4-oxo-7-propyl-3,4-dihydropyrrolo [1,2-f][1,2,4]triazin-2-yl)phenylsulfonyl)piperazin-1-yl)ethyl nitrate [Compound 1ai]” here?
Answer: 0.3%
